15 molecules from paper PMC11202002, “P18: Novel Anticancer Peptide from Induced Tumor-Suppressing Cells Targeting Breast Cancer and Bone Metastasis” (Cancers, 2024) can be followed below.

Test [1] concerns human triple-negative breast cancer tissue. Description: Ex vivo cancer tissue assay. The test is classed as cell-based. As to conditions: 5 µM Cisplatin or Taxol with 25 µg/mL of P18; 48 and 96 h; n = 6. As for the experimental part: The usage of human triple-negative breast cancer tissue was approved by the Indiana University Institutional Review Board (1911155674), and the tissues were received from the Indiana University Simon Comprehensive Cancer Center Tissue Procurement Core. Freshly isolated breast cancer tissue (~10 mg) was manually fragmented with a scalpel into small pieces (0.5~0.8 mm in length), which were grown in DMEM with 10% FBS and antibiotics for a day. […] The culture medium, consisting of these agents, was applied for 4 days, and a change in the fragment size was determined.

The test system of a further test is MDA-MB-231 cells. The experiment in a line: MTT-based cell viability assay. On the set-up: species or system human. As to conditions: for MTT-based relative viability: relative to cn = 1.00, peptide concentration not given, treated two days, OD 562 nm. On the procedure: (§1) Using 96-well plates with approximately 2000 cells per well, an MTT-based metabolic activity assay was performed. The cells were treated with agents and incubated for two days. On the fourth day, they were stained with 0.5 mg/mL thiazolyl blue tetrazolium bromide (M5655, Sigma). The optical density, used to assess metabolic activity, was measured at 562 nm. For the EdU-based proliferation activity assay, the cells were seeded in 96-well plates at about 1000 cells per well. A fluorescence-based cell proliferation kit (Click-iT™, EdU Alexa Fluor™ 488 Imaging Kit; Thermo Fisher, Waltham, MA, USA) was used according to the manufacturer’s instructions.

The test system of the next test is MDA-MB-436 cells. Description: MTT-based cell viability assay. As to conditions: for MTT-based relative viability: relative to cn = 1.00, peptide concentration not given, treated two days, OD 562 nm. On the set-up: species or system human. As for the experimental part: as §1
Test [2] relates to 4T1.2 mammary tumor cells. Description: MTT-based cell viability assay. On the set-up: species or system mouse. On the procedure:
as §1

The next test deals with PANC198 PDAC cells. The experiment in a line: MTT-based cell viability assay. As to conditions: PANC198 (PAN198). On the procedure:
as §1

The test system of another test is PANC1 PDAC cells. The experiment in a line: MTT-based cell viability assay. On the procedure:
as §1

The subject of test [3] is TT2 osteosarcoma cell line. Description: MTT-based cell viability assay. As to conditions: TT2 OS cells. As for the experimental part:
as §1

Another test concerns MCF7 cells. The experiment in a line: MTT-based cell viability assay. The arrangement: species or system human. On the procedure: as §1

Where two headings read alike, the source gives them in different places.

`N.N.[Cl][Pt][Cl]` [Cisplatin, reference compound]: the “size of cancer tissues, drug with concurrent P18 versus drug alone” value in test [1] is given as “more pronounced reduction in the size”. Besides, the half-inhibitory concentration (IC50) in the test with MDA-MB-231 cells (drug alone, read-out: IC50, MTT-based viability) was determined as 1200 nM; in the test with MDA-MB-231 cells (drug in combination with P18, read-out: IC50, MTT-based viability, with application of P18), 500 nM.
In the case of `CC(=O)O[C@H]1C(=O)[C@@]2(C)[C@H]([C@H](OC(=O)c3ccccc3)[C@]3(O)C[C@H](OC(=O)[C@H](O)[C@@H](NC(=O)c4ccccc4)c4ccccc4)C(C)=C1C3(C)C)[C@]1(OC(C)=O)CO[C@@H]1C[C@@H]2O` [Taxol, reference compound], in test [1], the “size of cancer tissues, drug with concurrent P18 versus drug alone” value was “more pronounced reduction in the size”. For the same molecule, the IC50 is 700 nM in the test on MDA-MB-231 cells (Homo sapiens, drug alone, read-out: IC50, MTT-based viability) and 300 nM in the test on MDA-MB-231 cells (Homo sapiens, drug in combination with P18, read-out: IC50, MTT-based viability, with application of P18).
As to “DQVANSAFVER [P19, ACP candidate … from Hsp90aa1]”, the figures for the MTT-based relative viability in the test with MDA-MB-231 cells and in the test with MDA-MB-436 cells were 1.09 and 0.96, respectively.
For “EEAESTLQSFR [P14, ACP candidate … from Vim]”, the MTT-based relative viability in the test with MDA-MB-231 cells stood at 0.88; in the test on MDA-MB-436 cells, 0.84.
As for “FEDENFILK [P11, ACP candidate … from Ppia]”, the MTT-based relative viability in the test on MDA-MB-231 cells came out at 0.96; in the test on MDA-MB-436 cells, 0.95.
As to “FEELNADLFR [P21, ACP candidate … from Hspa8]”, the MTT-based relative viability is reported as 0.89 in the test with MDA-MB-231 cells and 0.92 in the test on MDA-MB-436 cells.
On to “IDTIEIITDR [P15, ACP candidate … from Hnrn]”, for which the MTT-based relative viability in the test with MDA-MB-231 cells was determined as 0.93; with MDA-MB-436 cells it was 0.95.
For the molecule “IEVIEIMTDR [P22, ACP candidate … from Hnrnpa1]”, the MTT-based relative viability stood at 0.86 in the test on MDA-MB-231 cells and 0.88 in the test with MDA-MB-436 cells.
On the same counts, the results for “LGDLYEEEMR [P17, ACP candidate … from Vim]” are 1.10 and 0.99.
In the case of “NDLAVVDVR [P13, ACP candidate … from Ncl]”, the MTT-based relative viability was found to be 0.98 in the test with MDA-MB-231 cells and 0.95 with MDA-MB-436 cells.
For the molecule “QITLNDLPVGR [P20, ACP candidate … from Prdx4]”, the MTT-based relative viability was 0.87 with MDA-MB-231 cells and 0.86 in the test with MDA-MB-436 cells.
For the molecule “TDYMVGSYGPR-NH2 [P18-NH2, C-terminal-amidated P18, …-NH2]”, the “tumor-suppressor effect compared with the original P18 (MTT)” value (in test [2]; with PANC198 PDAC cells; with PANC1 PDAC cells; in test [3]; in the test on MDA-MB-231 cells; with MCF7 cells) was “did not improve the tumor-suppressor effect” throughout. The “tumor-suppressor effect compared with the original P18 (MTT)” value with MDA-MB-436 cells was “did not improve the tumor-suppressor effect”.
Take “VNFTVDQIR [P12, ACP candidate … from Eef2]”: the MTT-based relative viability came out at 0.94 with MDA-MB-231 cells and 0.92 in the test with MDA-MB-436 cells.
As to “YEWDVAEAR [P16, ACP candidate … from Eef2]”, the figures for the MTT-based relative viability with MDA-MB-231 cells and with MDA-MB-436 cells were 0.93 and 0.96, respectively.

B1: Arhgdia: Rho GDP dissociation inhibitor alpha; human recombinant ARHGDIA protein (MyBioSource) (protein, UniProt P52565 2-204, looked up)
Rho GDP-dissociation …: AEQEPTAEQLAQIAAENEEDEHSVNYKPPAQKSIQEIQELDKDDESLRKYKEALLGRVAVSADPNVPNVVVTGLTLVCSSAPGPLELDLTGDLESFKKQSFVLKEGVEYRIKISFRVNREIVSGMKYIQHTYRKGVKIDKTDYMVGSYGPRAEEYEFLTPVEEAPKGMLARGSYSIKSRFTDDDKTDHLSWEWNLTIKKDWKD
Take B1: the MTT-based cell viability result in the test with MDA-MB-231 cells (5 μg/mL of recombinant ARHGDIA protein) is given as “significant reduction”.

In general, IC50 refers to the point on the concentration scale where inhibition reaches its midpoint.
